Molecular target: GST-Bc1-2 (Homo sapiens, UniProt P10415)
Test: Time Resolved-Fluorescence Resonance Energy Transfer (TR-FRET) Bcl-2 binding assay with F-Bak peptide probe
Conditions: GST-Bcl-2 1 nM, F-Bak probe 100 nM, Tb-anti-GST 1 nM; '<' = below limit of detection; read-out: TR-FRET Bcl-2 Binding Ki

Sequence of GST-Bc1-2 (P10415 whole entry): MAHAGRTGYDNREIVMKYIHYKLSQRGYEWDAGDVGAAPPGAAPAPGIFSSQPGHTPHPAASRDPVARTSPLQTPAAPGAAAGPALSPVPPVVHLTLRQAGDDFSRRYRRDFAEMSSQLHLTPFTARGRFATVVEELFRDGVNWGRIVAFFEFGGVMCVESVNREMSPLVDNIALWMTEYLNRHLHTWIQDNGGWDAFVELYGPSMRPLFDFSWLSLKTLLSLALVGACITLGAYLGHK

SMILES | Ki
CC1(C)CCC(CN2CCN(c3ccc(C(=O)NS(=O)(=O)c4ccc(N[C@H]5CCCNC5=O)c([N+](=O)[O-])c4)c(Oc4cnc5[nH]ccc5c4)c3)CC2)=C(c2ccc(Cl)cc2)C1 [Example 160, 4-(4-{[2-(4-chlorophenyl)-4,4-dimethylcyclohex-1-en-1-yl]methyl}piperazin-1-yl)-N-[(3-nitro-4-{[(3S)-2-oxopiperidin-3-yl]amino}phenyl)sulfonyl]-2-(1H-pyrrolo[2,3-b]pyridin-5-yloxy)benzamide] | < 0.01 nM
CC1(C)CCC(CN2CCN(c3ccc(C(=O)NS(=O)(=O)c4ccc(NCC5CN(C(CF)CF)C5)c([N+](=O)[O-])c4)c(Oc4cnc5[nH]ccc5c4)c3)CC2)=C(c2ccc(Cl)cc2)C1 [Example 161, 4-(4-{[2-(4-chlorophenyl)-4,4-dimethylcyclohex-1-en-1-yl]methyl}piperazin-1-yl)-N-({4-[({1-[2-fluoro-1-(fluoromethyl)ethyl]azetidin-3-yl}methyl)amino]-3-nitrophenyl}sulfonyl)-2-(1H-pyrrolo[2,3-b]pyridin-5-yloxy)benzamide] | < 0.01 nM
CC1(C)CCC(CN2CCN(c3ccc(C(=O)NS(=O)(=O)c4ccc(NCC5CN(C6COC6)C5)c([N+](=O)[O-])c4)c(Oc4cnc5[nH]ccc5c4)c3)CC2)=C(c2ccc(Cl)cc2)C1 [Example 162, 4-(4-{[2-(4-chlorophenyl)-4,4-dimethylcyclohex-1-en-1-yl]methyl}piperazin-1-yl)-N-[(3-nitro-4-{[(1-oxetan-3-ylazetidin-3-yl)methyl]amino}phenyl)sulfonyl]-2-(1H-pyrrolo[2,3-b]pyridin-5-yloxy)benzamide] | < 0.01 nM
CC1(C)CCC(CN2CCN(c3ccc(C(=O)NS(=O)(=O)c4ccc(NCC5CCN(C6COC6)CC5)c([N+](=O)[O-])c4)c(Oc4cnc5[nH]ccc5c4)c3)CC2)=C(c2ccc(Cl)cc2)C1 [Example 163, 4-(4-{[2-(4-chlorophenyl)-4,4-dimethylcyclohex-1-en-1-yl]methyl}piperazin-1-yl)-N-[(3-nitro-4-{[(1-oxetan-3-ylpiperidin-4-yl)methyl]amino}phenyl)sulfonyl]-2-(1H-pyrrolo[2,3-b]pyridin-5-yloxy)benzamide] | < 0.01 nM
CC1(C)CCC(CN2CCN(c3ccc(C(=O)NS(=O)(=O)c4ccc(NCC5CCN(C6CC6)CC5)c([N+](=O)[O-])c4)c(Oc4cnc5[nH]ccc5c4)c3)CC2)=C(c2ccc(Cl)cc2)C1 [Example 164, 4-(4-{[2-(4-chlorophenyl)-4,4-dimethylcyclohex-1-en-1-yl]methyl}piperazin-1-yl)-N-[(4-{[(1-cyclopropylpiperidin-4-yl)methyl]amino}-3-nitrophenyl)sulfonyl]-2-(1H-pyrrolo[2,3-b]pyridin-5-yloxy)benzamide] | < 0.01 nM
CC1(C)CCC(CN2CCN(c3ccc(C(=O)NS(=O)(=O)c4ccc(NCC5CN(CCF)CCO5)c([N+](=O)[O-])c4)c(Oc4cnc5[nH]ccc5c4)c3)CC2)=C(c2ccc(Cl)cc2)C1 (stereo not shown) [Example 165, 4-(4-{[2-(4-chlorophenyl)-4,4-dimethylcyclohex-1-en-1-yl]methyl}piperazin-1-yl)-N-{[4-({[4-(2-fluoroethyl)morpholin-2-yl]methyl}amino)-3-nitrophenyl]sulfonyl}-2-(1H-pyrrolo[2,3-b]pyridin-5-yloxy)benzamide] | < 0.01 nM
CC1(C)CCC(CN2CCN(c3ccc(C(=O)NS(=O)(=O)c4ccc(NCC5CN(CC(F)F)CCO5)c([N+](=O)[O-])c4)c(Oc4cnc5[nH]ccc5c4)c3)CC2)=C(c2ccc(Cl)cc2)C1 (stereo not shown) [Example 166, 4-(4-{[2-(4-chlorophenyl)-4,4-dimethylcyclohex-1-en-1-yl]methyl}piperazin-1-yl)-N-{[4-({[4-(2,2-difluoroethyl)morpholin-2-yl]methyl}amino)-3-nitrophenyl]sulfonyl}-2-(1H-pyrrolo[2,3-b]pyridin-5-yloxy)benzamide] | < 0.01 nM
CC1(C)CCC(CN2CCN(c3ccc(C(=O)NS(=O)(=O)c4ccc(OCC5(F)CCN(C6COC6)CC5)c([N+](=O)[O-])c4)c(Oc4cnc5[nH]ccc5c4)c3)CC2)=C(c2ccc(Cl)cc2)C1 [Example 167, 4-(4-{[2-(4-chlorophenyl)-4,4-dimethylcyclohex-1-en-1-yl]methyl}piperazin-1-yl)-N-({4-[(4-fluoro-1-oxetan-3-ylpiperidin-4-yl)methoxy]-3-nitrophenyl}sulfonyl)-2-(1H-pyrrolo[2,3-b]pyridin-5-yloxy)benzamide] | < 0.01 nM
CC1(C)CCC(CN2CCN(c3ccc(C(=O)NS(=O)(=O)c4ccc(OC[C@@H]5CC(F)(F)CN5C5COC5)c([N+](=O)[O-])c4)c(Oc4cnc5[nH]ccc5c4)c3)CC2)=C(c2ccc(Cl)cc2)C1 [Example 168, 4-(4-{[2-(4-chlorophenyl)-4,4-dimethylcyclohex-1-en-1-yl]methyl}piperazin-1-yl)-N-[(4-{[(2S)-4,4-difluoro-1-oxetan-3-ylpyrrolidin-2-yl]methoxy}-3-nitrophenyl)sulfonyl]-2-(1H-pyrrolo[2,3-b]pyridin-5-yloxy)benzamide] | < 0.01 nM
CC1(C)CCC(CN2CCN(c3ccc(C(=O)NS(=O)(=O)c4ccc(NCC5COCCN5C5CCOCC5)c([N+](=O)[O-])c4)c(Oc4cnc5[nH]ccc5c4)c3)CC2)=C(c2ccc(Cl)cc2)C1 (stereo not shown) [Example 169, 4-(4-{[2-(4-chlorophenyl)-4,4-dimethylcyclohex-1-en-1-yl]methyl}piperazin-1-yl)-N-[(3-nitro-4-{[(4-tetrahydro-2H-pyran-4-ylmorpholin-3-yl)methyl]amino}phenyl)sulfonyl]-2-(1H-pyrrolo[2,3-b]pyridin-5-yloxy)benzamide] | 0.021 nM
CC1(C)CCC(CN2CCN(c3ccc(C(=O)NS(=O)(=O)c4ccc(NCC5COCCN5C5CCC5)c([N+](=O)[O-])c4)c(Oc4cnc5[nH]ccc5c4)c3)CC2)=C(c2ccc(Cl)cc2)C1 (stereo not shown) [Example 170, 4-(4-{[2-(4-chlorophenyl)-4,4-dimethylcyclohex-1-en-1-yl]methyl}piperazin-1-yl)-N-[(4-{[(4-cyclobutylmorpholin-3-yl)methyl]amino}-3-nitrophenyl)sulfonyl]-2-(1H-pyrrolo[2,3-b]pyridin-5-yloxy)benzamide] | 0.022 nM
CC1(C)CCC(CN2CCN(c3ccc(C(=O)NS(=O)(=O)c4ccc(NCC5COCCN5C5CCOC5)c([N+](=O)[O-])c4)c(Oc4cnc5[nH]ccc5c4)c3)CC2)=C(c2ccc(Cl)cc2)C1 (stereo not shown) [Example 171, 4-(4-{[2-(4-chlorophenyl)-4,4-dimethylcyclohex-1-en-1-yl]methyl}piperazin-1-yl)-N-[(3-nitro-4-{[(4-tetrahydrofuran-3-ylmorpholin-3-yl)methyl]amino}phenyl)sulfonyl]-2-(1H-pyrrolo[2,3-b]pyridin-5-yloxy)benzamide] | < 0.01 nM
CC1(C)CCC(CN2CCN(c3ccc(C(=O)NS(=O)(=O)c4ccc(NCC5CCN(C(CF)CF)CC5)c([N+](=O)[O-])c4)c(Oc4cnc5[nH]ccc5c4)c3)CC2)=C(c2ccc(Cl)cc2)C1 [Example 172, 4-(4-{[2-(4-chlorophenyl)-4,4-dimethylcyclohex-1-en-1-yl]methyl}piperazin-1-yl)-N-({4-[({1-[2-fluoro-1-(fluoromethyl)ethyl]piperidin-4-yl}methyl)amino]-3-nitrophenyl}sulfonyl)-2-(1H-pyrrolo[2,3-b]pyridin-5-yloxy)benzamide] | < 0.01 nM

Source: patent US8580794B2 (AbbVie Inc., priority 2009, dated 2013)
